Results from PMC11249637, “Interaction of the Atypical Tetracyclines Chelocardin and Amidochelocardin with Renal Drug Transporters” (ACS Pharmacology & Translational Science, 2024).

Tests used:
hOAT1 = biological target: T1, hOAT1 (Homo sapiens, UniProt Q4U2R8); experiment: Two-point inhibition of hOAT1-mediated PAH uptake in transfected HEK293 cells; assay type: in vitro ADME; conditions: PAH 10 μM, 1 min
T1 construct: expressed in transfected cells; host or cells: HEK293
T1 sequence (Q4U2R8 1-563): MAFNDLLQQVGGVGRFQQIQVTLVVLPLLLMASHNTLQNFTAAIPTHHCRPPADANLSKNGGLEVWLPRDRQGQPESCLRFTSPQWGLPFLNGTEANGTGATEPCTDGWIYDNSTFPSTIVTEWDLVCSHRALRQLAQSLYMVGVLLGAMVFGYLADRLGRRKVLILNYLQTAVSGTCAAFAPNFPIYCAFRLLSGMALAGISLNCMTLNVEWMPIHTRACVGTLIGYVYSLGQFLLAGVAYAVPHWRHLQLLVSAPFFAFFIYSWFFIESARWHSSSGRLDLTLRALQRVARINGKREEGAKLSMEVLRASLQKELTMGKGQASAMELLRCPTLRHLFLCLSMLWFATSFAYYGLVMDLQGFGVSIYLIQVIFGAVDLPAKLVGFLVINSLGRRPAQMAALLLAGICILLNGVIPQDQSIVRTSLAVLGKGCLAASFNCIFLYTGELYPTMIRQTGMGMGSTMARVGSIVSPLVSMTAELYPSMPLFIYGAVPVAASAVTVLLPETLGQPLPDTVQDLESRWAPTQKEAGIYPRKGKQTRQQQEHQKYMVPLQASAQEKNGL
Protocol: (§1) Well-characterized mOct1-, mOct2-, mOat1-, mOat2-, mOat3-, mMate1-, hOAT1-, hOAT3-, hOAT4-, hMRP2-, mMdr1a- and mMdr1b-transfected HEK293 cells and the respective vector-transfected control HEK293 cells were used.[42],[51],[52] All HEK293 cells (transporter-transfected and vector-transfected) were cultured in DMEM (Sigma, high glucose, 10% FBS, 1% penicillin (10,000 Units/mL)/streptomycin (10 mg/mL)) at 37°C under 5% CO2 in humidified atmosphere. The cells were routinely checked for the absence of mycoplasma infection. For the preparation of HEK293 cell monolayers, 24-well plates were pretreated with a poly-D-lysine hydrobromide solution (0.1 mg/mL). […]
(§2) For the uptake assay, the growth medium was aspirated, and each well was rinsed three times with 0.5 mL of incubation buffer (HBSS supplemented with 20 mM HEPES, pH 7.4) and incubated for 20 min at 37 °C. […] Cells were solubilized with 0.6 mL of 1N NaOH overnight and transferred into scintillation vials. ^3H and ^14C contents were measured after the addition of 2.5 mL of scintillator in a liquid scintillation counter.
(§3) The cellular protein amount was determined in parallel for each cell line (vector- and transporter-transfected) from six wells in a different 24-well reference plate using the Bradford method. […]
(§4) The inhibitory effect (I(%)) was calculated according to the formula: [drawing 5] […]

mOct1 = biological target: T2, mOct1 (Mus musculus, UniProt O08966); experiment: Two-point inhibition of mOct1-mediated MPP uptake in transfected HEK293 cells; assay type: in vitro ADME; conditions: 1 and 10 μM; MPP 10 μM, 1 min
T2 construct: expressed in transfected cells; host or cells: HEK293
T2 sequence (O08966 1-556): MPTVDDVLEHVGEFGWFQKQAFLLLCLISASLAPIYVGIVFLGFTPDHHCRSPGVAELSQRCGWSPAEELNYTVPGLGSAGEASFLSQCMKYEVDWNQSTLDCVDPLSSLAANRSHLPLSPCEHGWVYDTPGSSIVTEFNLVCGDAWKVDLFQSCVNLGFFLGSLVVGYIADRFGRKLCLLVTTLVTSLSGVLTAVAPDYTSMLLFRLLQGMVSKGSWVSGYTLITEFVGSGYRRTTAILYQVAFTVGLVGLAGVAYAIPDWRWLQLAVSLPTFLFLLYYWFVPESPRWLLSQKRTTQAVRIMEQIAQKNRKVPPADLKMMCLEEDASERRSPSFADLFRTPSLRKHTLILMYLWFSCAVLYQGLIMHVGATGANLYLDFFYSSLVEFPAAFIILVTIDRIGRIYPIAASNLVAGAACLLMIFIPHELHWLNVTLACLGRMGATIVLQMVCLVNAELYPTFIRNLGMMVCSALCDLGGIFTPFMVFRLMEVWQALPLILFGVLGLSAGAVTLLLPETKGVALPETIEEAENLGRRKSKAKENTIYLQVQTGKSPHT
Protocol: as §1, §2, §3, §4

SMILES | inhibitory effect on hOAT1 (in words) (hOAT1; 1 and 10 μM) | inhibitory effect on mOct1 (in words) (mOct1) | inhibition at 10 µM (hOAT1; HEK293, at 10 μM, read-out: inhibitory effect on hOAT1)
Cc1ccc2c(C)c3c(c(O)c2c1O)C(=O)[C@@]1(O)C(=O)C(C(N)=O)=C(O)[C@@H](N)[C@H]1C3 [CDCHD, amidochelocardin] | No inhibitory effect | slight inverse inhibitory effect | 
CC(=O)C1=C(O)[C@@H](N)[C@H]2Cc3c(c(O)c4c(O)c(C)ccc4c3C)C(=O)[C@@]2(O)C1=O [CHD, chelocardin] |  | No inhibitory effect | ~50%
